Patent publication US20230095520A1, “PHARMACEUTICAL COMPOSITION FOR PREVENTING OR TREATING CANCER COMPRISING AZOLE DERIVATIVES OR PHARMACEUTICALLY ACCEPTABLE SALT THEREOF” (Yungjin Pharm. Co., Ltd., priority 2020, published 2023)

Key:
[1] = target: T1, Recombinant purified human CDK7 (Homo sapiens, UniProt P50613); assay: CDK7 activity inhibition, ADP-Glo kinase assay; type: biochemical; conditions: ATP 90 μM, MBP substrate, 2 hours 30° C.
T1 construct: purchased ThermoFisher PV3868
In short: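 Human recombinant CDK7 (50 ng per reaction) in 40 mM Tris-Cl pH 7.5, 20 mM MgCl2, 0.1 mg/ml BSA, 50 μM DTT, with 1% DMSO. The reaction used 90 μM ATP and 0.2 μg/μl MBP substrate for 2 h at 30 °C. ADP formed was quantified by ADP-Glo luminescence to derive inhibition.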

MDA-MB-468 cells = assay: MDA-MB-468 cell proliferation inhibition (MTT); type: cell-based; conditions: MDA-MB-468 proliferation
Procedure: MDA-MB-468 cells are one of the triple-negative breast cancer (TNBC: negative for the expression of estrogen receptor, progesterone receptor and HER2) cells known as a malignant tumor that is difficult to diagnose at an early stage and has a high metastatic capacity, and these cells are used to test inhibition of proliferation and survival of breast cancer cells.
MDA-MB-468 cells cultured in a 96-well cell culture plate were treated with the compound of the present invention and cultured for 72 hours. Thereafter, the antiproliferative effect of the compound was assayed by the MTT method using a tetrazolium salt.

Hep3B = assay: Cancer cell proliferation GI50 (CCK-8); type: cell-based; conditions: Homo sapiens, liver cancer, 72 hours
Procedure: (§1) The proliferation effect of SY-1365, which is known to have a proliferation inhibitory effect on various carcinoma cells, and the compound of the present invention on various cancer cells was measured and compared as GI50 (half maximal growth inhibitory concentration, the concentration at which cell proliferation is reduced by half).
(§2) Various carcinoma cells were cultured at 37° C. in a humidified condition in the presence of 5% CO2. Each cell cultured in a 96-well cell culture plate was treated with the compound of the present invention and cultured for 72 hours.
(§3) In this example, in order to confirm the proliferation inhibitory effect on various cancer cells, Compound 121 was tested as follows.
(§4) The cells were cultured with a culture medium shown in Table 9 below at 37° C. in a humidified condition in the presence of 5% CO2. Each cell cultured in a 96-well cell culture plate was treated with the compound of the present invention and cultured for 72 hours.

Huh7 = assay: Cancer cell proliferation GI50 (CCK-8); type: cell-based; conditions: Homo sapiens, Huh7 (Huh-7), liver cancer, 72 hours
Procedure: as §1, §2, §3, §4

MDA-MB-231 = assay: Cancer cell proliferation GI50 (CCK-8); type: cell-based; conditions: Homo sapiens, MDA-MB-231, breast cancer, 72 hours
Procedure: as §1, §2, §3, §4

MDA-MB-468 = assay: Cancer cell proliferation GI50 (CCK-8); type: cell-based; conditions: Homo sapiens, MDA-MB-468, breast cancer, 72 hours
Procedure: as §1, §2, §3, §4

HepG2 = assay: Cancer cell proliferation GI50 (CCK-8); type: cell-based, human; conditions: Homo sapiens, HepG2, liver cancer, 72 hours
Procedure: as §1, §2, §3, §4

A549 = assay: Cancer cell proliferation GI50 (CCK-8); type: cell-based; conditions: Homo sapiens, A549, lung cancer, 72 hours
Procedure: as §3, §4

BDCM = assay: Cancer cell proliferation GI50 (CCK-8); type: cell-based; conditions: acute myeloid leukemia, 72 hours
Procedure: as §3, §4

DAUDI = assay: Cancer cell proliferation GI50 (CCK-8); type: cell-based; conditions: Homo sapiens, Burkitt lymphoma, 72 hours
Procedure: as §3, §4

HCC70 = assay: Cancer cell proliferation GI50 (CCK-8); type: cell-based; conditions: Homo sapiens, HCC70, breast cancer, 72 hours
Procedure: as §3, §4

LNCaP = assay: Cancer cell proliferation GI50 (CCK-8); type: cell-based; conditions: Homo sapiens, prostate cancer, 72 hours
Procedure: as §3, §4

MOLM/DEC-5 = assay: Cancer cell proliferation GI50 (CCK-8); type: cell-based; conditions: MOLM/DEC-5, acute myeloid leukemia, 72 hours
Procedure: as §3, §4

RCH-ACV = assay: Cancer cell proliferation GI50 (CCK-8); type: cell-based; conditions: B cell acute lymphocytic leukemia, 72 hours
Procedure: as §3, §4

MOLM-13-GFP human cells = assay: MOLM-13 orthotopic transplantation animal model; type: in vivo; conditions: NSG mouse, tail vein, 1 or 2 mg/kg (2D on/5D off) or 2 mg/kg BIW, 3 to 4 weeks, versus control group
Procedure: MOLM-13 cells showing cancer cell inhibitory effect were selected, and Compound 121 was tested as follows using an orthotopic transplantation model.
The animal model used for efficacy evaluation is an NSG (Jackson lab, #005557, USA) mouse lacking the IL-2 receptor gamma gene, in which the immune activity of T cells, B cells, and NK cells is suppressed, and the efficacy was evaluated in an orthotopic transplantation model of MOLM-13-GFP human cells. For the induction method, an orthotopic transplantation model was induced by injecting the cells in an amount of 5×10^5 cells/200 ul/mouse into the tail vein route. Four test groups were G1 excipient control group vehicle (saline), G2 No. 121 1 mg/kg (2D on/5D off), G3 No. 121 2 mg/kg (2D on/ 5D off), and G4 No. 121 2 mg/kg (BIW), and 5 animals per group were set. From the day after cell injection, the tail vein administration of Compound 121 was started at each dose and regimen for 3 to 4 weeks.

T1 sequence (P50613 whole entry): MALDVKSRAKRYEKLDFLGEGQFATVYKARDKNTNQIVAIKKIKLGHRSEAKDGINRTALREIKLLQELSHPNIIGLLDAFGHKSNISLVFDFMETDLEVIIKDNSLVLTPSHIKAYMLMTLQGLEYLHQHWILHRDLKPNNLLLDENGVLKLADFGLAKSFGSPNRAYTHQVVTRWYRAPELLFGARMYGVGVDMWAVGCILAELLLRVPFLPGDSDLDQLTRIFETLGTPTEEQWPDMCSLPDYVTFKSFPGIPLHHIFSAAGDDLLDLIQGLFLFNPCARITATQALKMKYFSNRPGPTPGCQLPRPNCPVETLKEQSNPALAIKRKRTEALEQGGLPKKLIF
T1 sequence (P51946 whole entry partner): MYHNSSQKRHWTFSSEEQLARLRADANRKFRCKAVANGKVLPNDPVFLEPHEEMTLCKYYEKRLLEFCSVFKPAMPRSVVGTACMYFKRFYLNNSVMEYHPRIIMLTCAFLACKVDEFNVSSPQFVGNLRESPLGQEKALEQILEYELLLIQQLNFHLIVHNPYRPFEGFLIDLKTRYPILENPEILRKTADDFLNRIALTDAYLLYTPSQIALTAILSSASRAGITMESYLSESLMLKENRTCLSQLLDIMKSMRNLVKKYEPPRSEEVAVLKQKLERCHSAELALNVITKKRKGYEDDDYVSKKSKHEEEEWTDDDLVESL
T1 sequence (P51948 whole entry partner): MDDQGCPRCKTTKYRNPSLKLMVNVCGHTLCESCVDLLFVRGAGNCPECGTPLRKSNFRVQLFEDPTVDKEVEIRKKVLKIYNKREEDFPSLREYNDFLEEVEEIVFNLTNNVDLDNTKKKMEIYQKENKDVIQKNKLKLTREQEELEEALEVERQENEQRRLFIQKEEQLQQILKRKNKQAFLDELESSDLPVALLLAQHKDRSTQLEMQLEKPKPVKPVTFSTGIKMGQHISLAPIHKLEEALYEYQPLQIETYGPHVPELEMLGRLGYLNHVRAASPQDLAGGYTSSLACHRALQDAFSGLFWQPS

With CCc1cnc(NC(=O)[C@@H](C)c2cccc(-c3cnc(NC(=O)/C=C/CN(C)C)c(C#N)c3)c2)s1 [Compound 121, (S,E)-N-(3-cyano-5-(3-(1-((5-ethylthiazol-2-yl)amino)-1-oxopropan-2-yl)phenyl)pyridin-2-yl)-4-(dimethylamino)but-2-enamide] the IC50 [1] was 4.2 nM, the IC50 (MDA-MB-468 cells; Homo sapiens, MDA-MB-468, 72 h) was at most 14 nM and the IC50 (MDA-MB-468 cells; 72 hours) was 14 nM. For the same compound, the GI50 (Hep3B) was 9 nM, the GI50 (Huh7) was 7 nM and the GI50 (MDA-MB-231) was 6 nM. It also gave a GI50 (MDA-MB-468) of 4 nM, a GI50 (HepG2) of 14 nM and a GI50 (A549) of 8.6 nM. It also gave a GI50 (BDCM) of 2.68 nM, a GI50 (DAUDI) of 9.15 nM and a GI50 (HCC70) of 11.2 nM. It also gave a GI50 (LNCaP) of 8 nM, a GI50 (MOLM/DEC-5) of 14.9 nM and a GI50 (RCH-ACV) of 4.1 nM. For the same compound, the survival rate (MOLM-13-GFP human cells; FIG. 11) was “increase in the survival rate” and the “change in body weight” value (MOLM-13-GFP human cells; FIG. 12) was “constant amount of body weight gain”.
